Test results: article PMC11790914, “Chemogenomics for steroid hormone receptors (NR3)” (Communications Chemistry, 2025)
“And” between values parts separate entries of the source, which are not always exact repeats. Equal entries are not always repeated.

Key:
HEK293T cells [1] = assay: Cytotoxicity: necrosis induction (red fluorescent dye for permeable plasma membranes); format: cell-based; settings: 0.3 µM, 24 h, necrotic cell count normalized to 0.1% DMSO, single replicates;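 note: compounds applied in DMEM high glucose with 0.1% FCS and 0.1% DMSO, necrotic HEK293T cells counted by red staining of cells whose plasma membranes had become permeable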
ABL1 = biological target: T1, ABL1 (Homo sapiens, UniProt P00519); assay: Liability panel screening by DSF: ABL1; format: binding; settings: DSF, 20 µM, n=2
T1 construct: made in house
Outline: (§1)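 Recombinant protein at 2 µM in 10 mM HEPES pH 7.5 with 500 mM NaCl was mixed with SYPRO Orange (1:1000) and heated at 3 °C/min up to 85 °C. Tm was taken as the Boltzmann-fit inflection point. Shifts are ∆Tm in K from technical duplicates.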

AURKA = biological target: T2, AURKA (Homo sapiens, UniProt O14965); assay: Liability panel screening by DSF: AURKA; format: binding; settings: DSF, 20 µM, n=2
T2 construct: made in house
T2 sequence (O14965 1-403): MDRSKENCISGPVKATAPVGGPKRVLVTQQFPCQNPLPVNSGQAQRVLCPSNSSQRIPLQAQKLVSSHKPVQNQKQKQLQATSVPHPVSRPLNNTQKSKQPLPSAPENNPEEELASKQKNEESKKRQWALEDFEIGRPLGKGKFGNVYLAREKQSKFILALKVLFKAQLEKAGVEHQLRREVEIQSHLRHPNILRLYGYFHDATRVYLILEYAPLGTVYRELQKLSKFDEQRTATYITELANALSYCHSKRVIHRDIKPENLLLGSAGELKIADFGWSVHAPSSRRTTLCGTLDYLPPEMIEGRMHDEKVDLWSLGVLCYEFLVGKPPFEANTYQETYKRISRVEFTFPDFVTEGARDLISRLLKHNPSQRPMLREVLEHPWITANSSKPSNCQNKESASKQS
Outline: as §1

CDK2 = biological target: T3, CDK2 (Homo sapiens, UniProt P24941); assay: Liability panel screening by DSF: CDK2; format: binding; settings: DSF, 20 µM, n=2
T3 construct: made in house
Outline: as §1

FGFR3 = biological target: T4, FGFR3 (Homo sapiens, UniProt P22607); assay: Liability panel screening by DSF: FGFR3; format: binding; settings: DSF, 20 µM, n=2
T4 construct: made in house
Outline: as §1

GSK3B = biological target: T5, GSK3B (Homo sapiens, UniProt P49841); assay: Liability panel screening by DSF: GSK3B; format: binding; settings: DSF, 20 µM, n=2
T5 construct: made in house

BRD4 = biological target: T6, BRD4 (Homo sapiens, UniProt O60885); assay: Liability panel screening by DSF: BRD4; format: binding; settings: DSF, 20 µM, n=2
T6 construct: This panel comprised ten highly ligandable kinases and bromodomains; made in house
Outline: as §1

BRPF1 = biological target: T7, BRPF1 (Homo sapiens, UniProt P55201); assay: Liability panel screening by DSF: BRPF1; format: binding; settings: DSF, 20 µM, n=2
T7 construct: This panel comprised ten highly ligandable kinases and bromodomains; made in house
T7 sequence (P55201 628-732 limits assumed): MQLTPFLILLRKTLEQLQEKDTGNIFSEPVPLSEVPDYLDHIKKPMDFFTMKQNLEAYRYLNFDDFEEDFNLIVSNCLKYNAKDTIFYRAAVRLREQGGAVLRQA
Outline: as §1

CSNK1D = biological target: T8, CSNK1D (Homo sapiens, UniProt P48730); assay: Liability panel screening by DSF: CSNK1D; format: binding; settings: DSF, 20 µM, n=2
T8 construct: made in house
Outline: as §1

MAPK1 = biological target: T9, MAPK1 (Homo sapiens, UniProt P28482); assay: Liability panel screening by DSF: MAPK1; format: binding; settings: DSF, 20 µM, n=2
T9 construct: made in house
Outline: as §1

TRIM24 = biological target: T10, TRIM24 (Homo sapiens, UniProt O15164); assay: Liability panel screening by DSF: TRIM24; format: binding; settings: DSF, 20 µM, n=2
T10 construct: This panel comprised ten highly ligandable kinases and bromodomains; made in house
T10 sequence (O15164 899-1004 limits assumed): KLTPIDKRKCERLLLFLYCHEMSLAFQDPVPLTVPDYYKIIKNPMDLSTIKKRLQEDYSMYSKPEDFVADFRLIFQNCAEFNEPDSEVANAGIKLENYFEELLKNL
Outline: as §1

[2] = test system: NF-κB activity in HEK293 NF-κB reporter cells; assay: NF-kB activity assay (GFP reporter, ionomycin/PMA); format: cell-based; settings: n=3
Outline: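 HEK293 NF-κB GFP reporter cells given compound in 0.1% DMSO for 4 h, then stimulated with ionomycin 100 ng/mL plus PMA 10 ng/mL. Imaged every 90 min over 24 h; GFP-positive cell count normalized to confluence, three independent biological replicates.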

[3] = test system: ATF6 activity in Hela ATF6 reporter cells; assay: Endoplasmic reticulum stress assay (ATF6 Renilla luciferase reporter, tunicamycin); format: cell-based; settings: 0.3 µM, single replicates n=1 to n=5
Outline: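 HeLa ATF6 Renilla reporter cells were pretreated 4 h with compounds in 0.1% DMSO, then stimulated with tunicamycin (100 ng/mL) for 18 h. Renilla luminescence (DualGlo) was normalized to 0.1% DMSO control; five independent experiments.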

NR3C1 (GR) = settings: ref Supplementary Table 1, cited from earlier work
NR3C3 (PR) = settings: cited from earlier work
[4] = known off-target outside the NR family at the recommended concentration; ref Supplementary Table 1 (superscript references); cited from earlier work
NR3C4 (AR) = settings: ref Supplementary Table 1, cited from earlier work
HEK293T cells [5] = assay: Cytotoxicity: metabolic activity (WST-8 / CCK-8 assay); settings: 0.3 µM; HEK293T, 24 h; WST-8; normalized to 0.1% DMSO; single replicates
HEK293T cells [6] = assay: Cytotoxicity: growth-rate (change in confluence over 24 h); settings: 0.3 µM, normalized to 0.1% DMSO control, single replicates (n=1...)
HEK293T cells [7] = assay: Cytotoxicity: apoptosis induction (caspase-3/7 DEVD fluorogenic DNA dye); settings: 0.3 µM; HEK293T, 24 h; apoptotic cell count normalized to 0.1% DMSO; single replicates

T8 sequence (P48730 whole entry, species assumed): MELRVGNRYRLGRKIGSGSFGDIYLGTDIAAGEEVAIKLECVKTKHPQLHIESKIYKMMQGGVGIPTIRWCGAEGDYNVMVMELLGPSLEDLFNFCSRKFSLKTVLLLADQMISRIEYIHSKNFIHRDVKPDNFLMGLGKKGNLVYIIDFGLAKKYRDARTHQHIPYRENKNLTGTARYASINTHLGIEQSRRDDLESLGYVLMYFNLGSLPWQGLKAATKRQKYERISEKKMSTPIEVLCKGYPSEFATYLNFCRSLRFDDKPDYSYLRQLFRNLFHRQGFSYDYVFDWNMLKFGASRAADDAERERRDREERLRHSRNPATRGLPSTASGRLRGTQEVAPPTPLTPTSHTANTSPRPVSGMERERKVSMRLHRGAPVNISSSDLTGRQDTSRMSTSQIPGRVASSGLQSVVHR
T5 sequence (P49841 whole entry, species assumed): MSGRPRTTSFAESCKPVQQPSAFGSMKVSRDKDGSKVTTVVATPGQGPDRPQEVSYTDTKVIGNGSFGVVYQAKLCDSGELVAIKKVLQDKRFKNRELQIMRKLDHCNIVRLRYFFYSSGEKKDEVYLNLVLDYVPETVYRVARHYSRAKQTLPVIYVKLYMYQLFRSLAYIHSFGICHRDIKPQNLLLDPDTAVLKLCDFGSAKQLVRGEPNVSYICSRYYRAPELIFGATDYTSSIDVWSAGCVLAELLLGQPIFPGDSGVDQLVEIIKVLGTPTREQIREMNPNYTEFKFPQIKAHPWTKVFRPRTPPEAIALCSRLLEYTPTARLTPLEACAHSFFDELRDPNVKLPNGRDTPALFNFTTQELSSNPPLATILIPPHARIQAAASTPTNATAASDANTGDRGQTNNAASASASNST
T4 sequence (P22607 23-806, species assumed): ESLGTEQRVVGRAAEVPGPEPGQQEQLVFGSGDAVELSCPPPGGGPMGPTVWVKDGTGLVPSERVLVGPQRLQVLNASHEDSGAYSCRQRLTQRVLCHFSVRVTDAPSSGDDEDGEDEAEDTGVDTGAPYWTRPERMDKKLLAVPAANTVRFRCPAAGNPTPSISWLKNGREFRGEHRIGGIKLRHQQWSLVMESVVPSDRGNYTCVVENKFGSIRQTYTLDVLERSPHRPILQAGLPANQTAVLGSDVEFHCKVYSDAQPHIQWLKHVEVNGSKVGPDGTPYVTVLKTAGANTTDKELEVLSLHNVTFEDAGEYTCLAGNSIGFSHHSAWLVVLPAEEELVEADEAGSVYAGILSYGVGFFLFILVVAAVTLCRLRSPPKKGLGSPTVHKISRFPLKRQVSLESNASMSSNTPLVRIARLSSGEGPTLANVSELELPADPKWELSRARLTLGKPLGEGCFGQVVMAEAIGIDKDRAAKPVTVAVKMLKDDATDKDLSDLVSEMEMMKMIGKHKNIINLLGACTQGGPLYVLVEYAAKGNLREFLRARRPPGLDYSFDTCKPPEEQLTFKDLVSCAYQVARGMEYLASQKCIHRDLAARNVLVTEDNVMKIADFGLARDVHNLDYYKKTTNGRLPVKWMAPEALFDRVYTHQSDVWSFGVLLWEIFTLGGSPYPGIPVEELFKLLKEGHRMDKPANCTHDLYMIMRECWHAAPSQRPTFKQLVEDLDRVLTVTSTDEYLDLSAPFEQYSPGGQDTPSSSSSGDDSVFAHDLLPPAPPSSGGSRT
T9 sequence (P28482 whole entry, species assumed): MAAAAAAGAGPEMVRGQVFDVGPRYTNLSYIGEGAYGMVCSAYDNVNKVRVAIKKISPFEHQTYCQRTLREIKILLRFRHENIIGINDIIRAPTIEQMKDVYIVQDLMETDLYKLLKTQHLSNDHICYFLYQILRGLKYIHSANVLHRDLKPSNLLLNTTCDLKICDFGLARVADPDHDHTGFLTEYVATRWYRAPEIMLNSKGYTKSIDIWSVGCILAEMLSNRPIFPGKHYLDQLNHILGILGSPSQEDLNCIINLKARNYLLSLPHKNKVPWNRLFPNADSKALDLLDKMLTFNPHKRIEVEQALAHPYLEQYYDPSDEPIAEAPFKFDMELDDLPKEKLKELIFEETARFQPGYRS
T1 sequence (P00519 whole entry, species assumed): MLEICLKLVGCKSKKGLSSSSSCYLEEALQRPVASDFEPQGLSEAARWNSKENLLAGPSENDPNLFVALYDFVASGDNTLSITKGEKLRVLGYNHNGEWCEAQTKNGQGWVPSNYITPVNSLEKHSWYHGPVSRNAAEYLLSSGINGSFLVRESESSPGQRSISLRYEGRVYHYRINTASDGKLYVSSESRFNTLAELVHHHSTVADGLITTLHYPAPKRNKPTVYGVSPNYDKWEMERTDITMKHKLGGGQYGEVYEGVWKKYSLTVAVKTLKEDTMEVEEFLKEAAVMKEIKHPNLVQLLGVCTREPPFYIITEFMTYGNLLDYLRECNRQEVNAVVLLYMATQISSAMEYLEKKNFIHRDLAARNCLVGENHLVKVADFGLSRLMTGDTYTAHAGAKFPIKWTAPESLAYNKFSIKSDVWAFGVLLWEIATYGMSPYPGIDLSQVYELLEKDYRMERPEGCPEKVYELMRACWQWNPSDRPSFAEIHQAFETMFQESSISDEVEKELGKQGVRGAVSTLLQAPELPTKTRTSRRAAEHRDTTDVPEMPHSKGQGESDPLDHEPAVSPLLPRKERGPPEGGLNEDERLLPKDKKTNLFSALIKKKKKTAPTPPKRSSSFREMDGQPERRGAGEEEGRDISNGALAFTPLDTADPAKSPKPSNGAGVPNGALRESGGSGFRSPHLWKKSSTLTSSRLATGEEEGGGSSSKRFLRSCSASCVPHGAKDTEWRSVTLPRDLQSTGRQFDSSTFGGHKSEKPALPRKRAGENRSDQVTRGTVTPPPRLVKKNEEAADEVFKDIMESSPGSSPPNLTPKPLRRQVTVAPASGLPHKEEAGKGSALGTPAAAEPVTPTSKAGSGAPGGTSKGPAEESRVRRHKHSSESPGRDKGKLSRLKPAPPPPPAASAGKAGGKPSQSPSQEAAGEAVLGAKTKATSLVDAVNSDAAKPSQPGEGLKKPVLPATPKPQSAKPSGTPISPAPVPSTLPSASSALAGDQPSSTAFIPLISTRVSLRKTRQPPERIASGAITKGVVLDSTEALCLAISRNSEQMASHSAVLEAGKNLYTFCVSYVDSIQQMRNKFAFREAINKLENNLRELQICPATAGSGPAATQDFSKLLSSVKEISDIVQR

## Medroxyprogesterone
HEK293T cells [1]
  Necrosis induction [NI]: 0.91 (2×) and 1.04 and 0.81
ABL1
  Mean ΔTM ABL1: -0.24 K
AURKA
  Mean ΔTM AURKA: 0.0165 K
CDK2
  Mean ΔTM CDK2: -0.39 K
FGFR3
  Mean ΔTM FGFR3: -0.32 K
GSK3B
  Mean ΔTM GSK3B: -0.99 K
BRD4
  Mean ΔTM BRD4: -1.17 K
BRPF1
  Mean ΔTM BRPF1: 0.25 K
CSNK1D
  Mean ΔTM CSNK1D: -0.11 K
MAPK1
  Mean ΔTM MAPK1: 0.18 K
TRIM24
  Mean ΔTM TRIM24: -0.75 K
[2]; 0.3 µM, 1,5 h
  Mean NFκB response: 2817.45 GFP+-cells/confluence ∙ 1000
[2]; 0.3 µM, 4,5 h
  Mean NFκB response: 3349.18 GFP+-cells/confluence ∙ 1000
[2]; 0.3 µM, 7,5 h
  Mean NFκB response: 6986.39 GFP+-cells/confluence ∙ 1000
[2]; 0.3 µM, 10,5 h
  Mean NFκB response: 17788.45 GFP+-cells/confluence ∙ 1000
[2]; 0.3 µM, 13,5 h
  Mean NFκB response: 26308.75 GFP+-cells/confluence ∙ 1000
[2]; 0.3 µM, 16,6 h
  Mean NFκB response: 32691.58 GFP+-cells/confluence ∙ 1000
[2]; 0.3 µM, 19,5 h
  Mean NFκB response: 37046.67 GFP+-cells/confluence ∙ 1000
[2]; 0.3 µM, 22,5 h
  Mean NFκB response: 41020.00 GFP+-cells/confluence ∙ 1000
[2]; 0.3 µM, 3 h
  Mean NFκB response: 2918.53 GFP+-cells/confluence ∙ 1000
[2]; 0.3 µM, 6 h
  Mean NFκB response: 4035.46 GFP+-cells/confluence ∙ 1000
[2]; 0.3 µM, 9 h
  Mean NFκB response: 12242.08 GFP+-cells/confluence ∙ 1000
[2]; 0.3 µM, 12 h
  Mean NFκB response: 21999.86 GFP+-cells/confluence ∙ 1000
[2]; 0.3 µM, 15 h
  Mean NFκB response: 29772.36 GFP+-cells/confluence ∙ 1000
[2]; 0.3 µM, 18 h
  Mean NFκB response: 34990.00 GFP+-cells/confluence ∙ 1000
[2]; 0.3 µM, 21 h
  Mean NFκB response: 39166.67 GFP+-cells/confluence ∙ 1000
[2]; 0.3 µM, 24 h
  Mean NFκB response: 41696.67 GFP+-cells/confluence ∙ 1000
[3]
  ER stress [rel. ATF6 activity]: 0.98 and 0.97 and 1.05 and 0.94 and 0.96
NR3C1 (GR); (lit.), read-out: Potency [nM] EC50, NR3C1 (GR)
  EC50: 10 ± 1 nM
NR3C1 (GR); of dexamet./DXM
  rel. activity from literature, NR3C1 (GR): % of dexamethasone (DXM): 157 ± 22%
NR3C3 (PR); (lit.), ref Supplementary Table 1, read-out: Potency [nM] EC50, NR3C3 (PR)
  EC50: 0.15 ± 0.05 nM
NR3C3 (PR); of PGN (progesterone)
  rel. activity from literature, NR3C3 (PR): % of PGN: 80 ± 7%
[4]
  Other off-target at recom. conc.: 17β-HSD2 and 17β-HSD3 and 17β-HSD1
NR3C4 (AR); of DHT (dihydrotestosterone)
  rel. activity from literature, NR3C4 (AR): % of DHT: 159 ± 10%
NR3C4 (AR); read-out: Potency [nM] IC50, NR3C4 (AR), (lit.)
  IC50: 6 ± 1 nM
HEK293T cells [5]
  Metabolic activity [MA]: 0.94 and 1.01 and 0.93 and 1.08
HEK293T cells [6]
  Growth rate [GR]: 0.94 and 1.01 and 1.09 and 1.40 and 1.04 (2×) and 0.87 and 1.11 and 0.76 and 1.34
HEK293T cells [7]
  Apoptosis induction [AI]: 0.76 and 0.77 and 1.07 and 0.74 (2×) and 0.88
